Measurements published in US20260285802A1, “MODULATORS OF SORTILIN ACTIVITY” (priority 2023, published 2026).
pKd: −log10 of the molar value.

Target: T1, Human (6-His) Sortilin (Homo sapiens, UniProt Q99523)
T1 sequence (Q99523 78-831): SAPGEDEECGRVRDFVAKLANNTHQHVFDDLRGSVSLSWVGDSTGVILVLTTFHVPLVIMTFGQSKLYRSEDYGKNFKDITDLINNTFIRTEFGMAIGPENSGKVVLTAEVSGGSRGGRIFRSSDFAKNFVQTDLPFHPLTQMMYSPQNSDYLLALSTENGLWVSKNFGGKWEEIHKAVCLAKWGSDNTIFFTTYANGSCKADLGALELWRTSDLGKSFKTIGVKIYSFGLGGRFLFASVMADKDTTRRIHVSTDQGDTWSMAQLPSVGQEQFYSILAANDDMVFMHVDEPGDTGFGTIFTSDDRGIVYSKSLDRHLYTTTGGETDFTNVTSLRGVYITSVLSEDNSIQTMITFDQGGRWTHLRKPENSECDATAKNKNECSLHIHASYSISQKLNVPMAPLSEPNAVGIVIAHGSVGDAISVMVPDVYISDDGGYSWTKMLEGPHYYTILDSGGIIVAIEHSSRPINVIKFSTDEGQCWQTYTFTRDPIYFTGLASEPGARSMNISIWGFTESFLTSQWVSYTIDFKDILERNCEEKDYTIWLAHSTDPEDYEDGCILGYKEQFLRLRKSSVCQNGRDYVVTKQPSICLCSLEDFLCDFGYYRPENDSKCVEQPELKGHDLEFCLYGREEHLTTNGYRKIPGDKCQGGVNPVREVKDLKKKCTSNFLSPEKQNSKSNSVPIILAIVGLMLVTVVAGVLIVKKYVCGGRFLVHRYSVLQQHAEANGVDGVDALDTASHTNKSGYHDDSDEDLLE
Experiment: biochemical

SMILES	pKd
CC(C)(C)CCC(Nc1ccccc1)c1nnn[nH]1 (racemic) [Example 39, N-phenyl[4,4-dimethyl-1-(2H-tetraazol-5-yl)pentyl]amine]	5.55
CC(C)CC(Nc1cccnc1)c1nnn[nH]1 (racemic) [Example 63, [3-methyl-1-(2H-tetraazol-5-yl)butyl]-3-pyridylamine]	4.33
CC(C)CC(Nc1ccccc1)c1nnn[nH]1 (racemic) [Example 67, [3-methyl-1-(2H-tetraazol-5-yl)butyl]aniline]	3.95
CC(C)(C)CC[C@H](Nc1nc(C2CC2)nc2ccccc12)C(=O)O [Example 119, (S)-2-((2-Cyclopropylquinazolin-4-yl)amino)-5,5-dimethylhexanoic acid]	7.85

Second part, the molecule after the results:

pKd	SMILES
7.04	COc1ccc2c(NC(CCC(C)(C)C)c3nnn[nH]3)ncnc2c1 (racemic) [Example 85, [4,4-dimethyl-1-(2H-tetraazol-5-yl)pentyl](7-methoxy-4-quinazolinyl)amine]
6.45	CC(C)(C)CCC(Nc1ncnc2cc(C(F)(F)F)ccc12)c1nnn[nH]1 (racemic) [Example 87, [4,4-dimethyl-1-(2H-tetraazol-5-yl)pentyl][7-(trifluoromethyl)-4-quinazolinyl]amine]
7.07	Cc1nc(NC(CCC(C)(C)C)c2nnn[nH]2)c2ccccc2n1 (racemic) [Example 89, [4,4-dimethyl-1-(2H-tetraazol-5-yl)pentyl](2-methyl-4-quinazolinyl)amine]
7.74	Cc1nc(N[C@@H](CCC(C)(C)C)C(=O)O)c2ccccc2n1 [Example 118, (S)-5,5-Dimethyl-2-((2-methylquinazolin-4-yl)amino)hexanoic acid]
